Measurements reported in US7381824B2 (Agouron Pharmaceuticals, Inc., priority 2003, dated 2008).
Where two headings read alike, the source gives them in different places.

Key:
[1] = target: T1, human vascular endothelial growth factor receptor 2 (VEGF-R2) (Homo sapiens, UniProt P35968, DEL940-989/E990V); assay: VEGF-R2 coupled spectrophotometric assay (FLVK, unphosphorylated VEGF-R2D50); format: biochemical
T1 construct: VEGF-R2D50 contains residues 806-939 and 990-1171; made in house; host or cells: baculovirus/insect cell system
T1 sequence (P35968 with tags, fused parts or gaps DEL940-989/E990V limits assumed): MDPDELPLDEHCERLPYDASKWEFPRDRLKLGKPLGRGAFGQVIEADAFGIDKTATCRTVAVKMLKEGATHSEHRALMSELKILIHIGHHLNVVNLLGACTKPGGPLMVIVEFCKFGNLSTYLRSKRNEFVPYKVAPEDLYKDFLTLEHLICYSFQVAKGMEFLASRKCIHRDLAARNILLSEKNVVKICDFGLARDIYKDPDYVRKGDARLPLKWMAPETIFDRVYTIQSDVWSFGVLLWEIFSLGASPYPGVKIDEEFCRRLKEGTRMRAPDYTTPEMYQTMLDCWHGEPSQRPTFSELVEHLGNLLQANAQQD
Description: This construct determines the ability of a test compound to inhibit tyrosine kinase activity. A construct (VEGF-R2D50) of the cytosolic domain of human vascular endothelial growth factor receptor 2 (VEGF-R2) lacking the 50 central residues of the 68 residues of the kinase insert domain was expressed in a baculovirus/insect cell system. Of the 1356 residues of full-length VEGF-R2, VEGF-R2D50 contains residues 806-939 and 990-1171, and also one point mutation (E990V) within the kinase insert domain relative to wild-type VEGF-R2. Autophosphorylation of the purified construct was performed by incubation of the enzyme at a concentration of […] in the presence of 3 mM ATP and 40 mM MgCl2 in 100 mM HEPES, pH 7.5, containing 5% glycerol and 5 mM DTT, at 4° C. for 2 h. […] See Parast et al., Biochemistry, 37, 16788-16801 (1998).
VEGF-R2 Assay: Coupled Spectrophotometric (FLVK-P) Assay
The production of ADP from ATP that accompanies phosphoryl transfer was coupled to oxidation of NADH using phosphoenolpyruvate (PEP) and a system having pyruvate kinase (PK) and lactic dehydrogenase (LDH). The oxidation of NADH was monitored by following the decrease of absorbance at 340 nm (e340=6.22 cm^−1 mM^−1) using a Beckman DU 650 spectrophotometer. Assay conditions for phosphorylated VEGF-R2D50 (indicated as FLVK-P in the tables below) were the following: 1 mM PEP; […] NADH; 50 units of LDH/mL; 20 units of PK/mL; 5 mM DTT; 5.1 mM poly(E4Y1); 1 mM ATP; and 25 mM MgCl2 in 200 mM HEPES, pH 7.5. Assay conditions for unphosphorylated VEGF-R2D50 (indicated as FLVK in the tables) were the following: 1 mM PEP; […] NADH; 50 units of LDH/mL; 20 units of PK/mL; 5 mM DTT; 20 mM poly(E4Y1); 3 mM ATP; and 60 mM MgCl2 and 2 mM MnCl2 in 200 mM HEPES, pH 7.5. Assays were initiated with 5 to 40 nM of enzyme. K1 values were determined by measuring enzyme activity in the presence of varying concentrations of test compounds. The percent inhibition at 50 nM (% inhibition @ 50 nM) was determined by linear least-squares regression analysis of absorbance as a function of time. The binding inhibitions were fitted to equation as described by Morrison. The data were analyzed using Enzyme Kinetic and Kaleidagraph software.

human FGF-R1 = target: T2, human FGF-R1 (Homo sapiens, UniProt P11362, C488A/C584S/L457V); assay: FGF-R spectrophotometric assay; format: biochemical
T2 construct: starting from the endogenous methionine residue 456 to glutamate 766; made in house; host or cells: baculovirus vector expression system
T2 sequence (P11362 456-766 L457V/C488A/C584S): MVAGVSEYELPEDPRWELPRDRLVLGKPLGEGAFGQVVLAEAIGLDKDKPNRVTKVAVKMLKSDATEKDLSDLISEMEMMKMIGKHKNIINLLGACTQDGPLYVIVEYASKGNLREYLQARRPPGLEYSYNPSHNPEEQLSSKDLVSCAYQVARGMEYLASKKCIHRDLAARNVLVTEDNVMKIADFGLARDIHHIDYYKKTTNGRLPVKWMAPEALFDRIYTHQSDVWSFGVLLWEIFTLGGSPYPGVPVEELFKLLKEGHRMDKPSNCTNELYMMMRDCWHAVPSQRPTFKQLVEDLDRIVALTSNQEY
Experimental: The intracellular kinase domain of human FGF-R1 was expressed using the baculovirus vector expression system starting from the endogenous methionine residue 456 to glutamate 766, according to the residue numbering system of Mohammadi et al., Mol. Cell. Biol., 16, 977-989 (1996). In addition, the construct also has the following 3 amino acid substitutions: L457V, C488A, and C584S.
The spectrophotometric assay was carried out as described above for VEGF-R2, except for the following changes in concentration: FGF-R=50 nM, ATP=2 mM, and poly(E4Y1)=15 mM.

[2] = tested on: human umbilical vein endothelial cells (HUVEC); assay: HUVEC+VEGF proliferation assay; format: cell-based; settings: Homo sapiens; VEGF-stimulated HUVEC proliferation, MTT, 72 hours
Experimental: HUVEC+VEGF Proliferation Assay
This assay determines the ability of a test compound to inhibit the growth factor-stimulated proliferation of human umbilical vein endothelial cells (“HUVEC”). HUVEC cells (passage 3-4, Clonetics, Corp.) were thawed into EGM2 culture medium (Clonetics Corp) in T75 flasks. Fresh EGM2 medium was added to the flasks 24 hours later. Four or five days later, cells were exposed to another culture medium (F12K medium supplemented with 10% fetal bovine serum (FBS), […] endothelial cell growth supplement (ECGS), and 0.1 mg/mL heparin). Exponentially-growing HUVEC cells were used in experiments thereafter. Ten to twelve thousand HUVEC cells were plated in 96-well dishes in […] of rich, culture medium (described above). The cells were allowed to attach for 24 hours in this medium. The medium was then removed by aspiration and […] of starvation media (F12K+1% FBS) was added to each well. After 24 hours, […] of test agent dissolved in 1% DMSO in starvation medium or this vehicle alone was added into each treatment well; the final DMSO concentration was 0.1%. One hour later, […] of VEGF (30 ng/mL) in starvation media was added to all wells except those containing untreated controls; the final VEGF concentration was 6 ng/mL. Cellular proliferation was quantified 72 hours later by MTT dye reduction, at which time cells were exposed for 4 hours MTT (Promega Corp.). Dye reduction was stopped by addition of a stop solution (Promega Corp.) and absorbance at 595 nm was determined on a 96-well spectrophotometer plate reader.

[3] = unphosphorylated VEGF-R2D50 (FLVK)

inhibition at 1 µM [1]	inhibition at 1 µM (human FGF-R1)	Ki [1, 3]	Ki [1]	Structure (SMILES)	IC50 [2]
68%	32%	–	–	COc1ccc2c(Oc3ccc4cc(C)oc4c3)ccnc2c1 [Example 125, 7-Methoxy-4-(2-methyl-benzofuran-6-yloxy)-quinoline]	–
–	–	1 to 10 nM	–	CCOCCNC(=O)c1c(C)oc2cc(Oc3ccnc4cc(OC)ccc34)ccc12 [Example 86, 6-[(7-methoxyquinolin-4-yl)oxy]-2-methyl-N-[ethoxy-ethyl]-1-benzofuran-3-carboxamide]	1 to 10 nM
–	–	1 to 10 nM	–	CNC(=O)c1c(C)oc2cc(Oc3ccnc4cc(OCCN(C)C)ccc34)ccc12 [Example 37, 6-({7-[2-(dimethylamino)ethoxy]quinolin-4-yl}oxy)-N,2-dimethyl-1-benzofuran-3-carboxamide]	< 1 nM
–	–	1 to 10 nM	–	CCCCNC(=O)c1c(C)oc2cc(Oc3ccnc4cc(OCCN5CCOCC5)ccc34)ccc12 [Example 45, N-butyl-2-methyl-6-{[7-(2-morpholin-4-ylethoxy)quinolin-4-yl]oxy}-1-benzofuran-3-carboxamide]	1 to 10 nM
–	–	1 to 10 nM	–	CNC(=O)c1c(C)sc2cc(Oc3ccnc4cc(-c5cccnc5)ccc34)ccc12 [Example 14, N2dimethyl-6-[(7-pyridin-3-ylquinolin-4-yl)oxy]-1-benzothiophene-3-carboxamide]	1 to 10 nM
–	–	1 to 10 nM	–	CCCCNC(=O)c1c(C)oc2cc(Oc3ccnc4cc(OCCN(C)C)ccc34)ccc12 [Example 46, N-butyl-6-({7-[2-(dimethylamino)ethoxy]quinolin-4-yl}oxy)-2-methyl-1-benzofuran-3-carboxamide]	< 1 nM
–	–	1 to 10 nM	–	COc1ccc2c(Oc3ccc4c(C(=O)NC[C@H]5CCCO5)c(C)oc4c3)ccnc2c1 [Example 84, 6-[(7-methoxyquinolin-4-yl)oxy]-2-methyl-N-[(2R)tetrahydrofuran-2-ylmethyl]-1-benzofuran-3-carboxamide]	1 to 10 nM
–	–	1 to 10 nM	–	CNC(=O)c1c(C)oc2cc(Oc3ccnc4cc(OCCN5CCOCC5)ccc34)ccc12 [Example 36, N,2-dimethyl-6-{[7-(2-morpholin-4-ylethoxy)quinolin-4-yl]oxy)-1-benzofuran-3-carboxamide]	< 1 nM
–	–	1 to 10 nM	–	CNC(=O)c1c(C)oc2cc(Oc3ccnc4cc(I)ccc34)ccc12 [Example 6, 6-[(7-iodoquinolin-4-yl)oxy]-N,2-dimethyl-1-benzofuran-3-carboxamide]	1 to 10 nM
–	–	1 to 10 nM	–	CCCCNC(=O)c1c(C)oc2cc(Oc3ccnc4cc(OCCN5CCCC5)ccc34)ccc12 [Example 44, N-butyl-2-methyl-6-{[7-(2-pyrrolidin-1-ylethoxy)quinolin-4-yl]oxy}-1-benzofuran-3-carboxamide]	< 1 nM
–	–	< 1 nM	–	CNC(=O)c1c(C)oc2cc(Oc3ccnc4cc(-c5cccnc5)ccc34)ccc12 [Example 8, N-2-dimethyl-6-[(7-pyridin-3-ylquinolin-4-yl)oxy]-1-benzofuran-3-carboxamide]	< 1 nM
–	–	1 to 10 nM	–	COCCNC(=O)c1c(C)oc2cc(Oc3ccnc4cc(OC)ccc34)ccc12 [Example 88, N-(2-methoxyethyl)-6-[(7-methoxyquinolin-4-yl)oxy]-2-methyl-1-benzofuran-3-carboxamide]	1 to 10 nM
–	–	1 to 10 nM	–	CCCNC(=O)c1c(C)sc2cc(Oc3ccnc4cc(OC)ccc34)ccc12 [Example 50, [(7-methoxyquinolin-4-yl)oxy]-2-methyl-N-propyl-1-benzothiophene-3-carboxamide]	1 to 10 nM
–	–	1 to 10 nM	–	COc1ccc2c(Oc3ccc4c(C(=O)NC5CCCC5)c(C)sc4c3)ccnc2c1 [Example 53, N-cyclopentyl-6-[(7-methoxyquinolin-4-yl)oxy]-2-methyl-1-benzothiophene-3-carboxamide]	1 to 10 nM
–	38%	> 10 nM	32 nM	Cc1cc2ccc(Oc3ccnc4cc(OCCN5CCOCC5)ccc34)cc2o1 [Example 126, 4-(2-Methyl-benzofuran-6-yloxy)-7-(2-morpholin-4-yl-ethoxy)-quinoline]	–
–	–	< 1 nM	–	CNC(=O)c1c(C)oc2cc(Oc3ccnc4cc(OC)ccc34)ccc12 [Example 29, 6-[(7-methoxyquinoline-4-yl)oxy]-N,2-dimethyl-1-benzofuran-3-carboxamide]	1 to 10 nM
–	–	1 to 10 nM	–	CNC(=O)c1c(C)oc2cc(Oc3ccnc4cc(Br)ccc34)ccc12 [Example 19, 6-[(7-bromoquinolin-4-yl)oxy]-N,2-dimethy-1-benzofuran-3-carboxamide]	1 to 10 nM
–	–	> 10 nM	–	COc1ccc2c(Oc3ccc4c(C(=O)NCCCN(C)C)c(C)sc4c3)ccnc2c1 [Example 51, N-[3-(dimethylamino)propyl]-6-[(7-methoxyquinolin-4-yl)oxy]-2-methyl-1-benzothiophene-3-carboxamide]	1 to 10 nM
–	–	< 1 nM	–	CNC(=O)c1c(C)oc2cc(Oc3ccnc4cc(-c5ccccn5)ccc34)ccc12 [Example 9, N-2-dimethyl-6-[(7-pyridin-2-ylquinolin-4-yl)oxy]-1-benzofuran-3-carboxamide]	1 to 10 nM
–	–	1 to 10 nM	–	COc1ccc2c(Oc3ccc4c(C(=O)NCCCO)c(C)oc4c3)ccnc2c1 [Example 67, N-(3-hydroxypropyl)-6-[(7-methoxyquinolin-4-yl)oxy]-2-methyl-1-benzofuran-3-carboxamide]	1 to 10 nM
–	–	1 to 10 nM	–	CNC(=O)c1c(C)oc2cc(Oc3ccnc4cc(OCCN5CCCCC5)ccc34)ccc12 [Example 38, N,2-dimethyl-6-{[7-(2-piperidin-1-ylethoxy)quinolin-4-yl]oxy}-1-benzofuran-3-carboxamide]	< 1 nM
